Results: the supplement of paper PMC10307832

Key:
Test in all cases: relative viability (nuclei count vs DMSO), 5 days (fraction); higher = more cells survive
[1] = compound: CC1=C(C(=O)N2C=CSC2=N1)CCN3CCC(=C(C4=CC=CC=C4)C5=CC=C(C=C5)F)CC3
In short: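 Lung cancer cell lines in 1536-well plates were exposed by pinning to five library-drug doses (not always all listed) √10 apart, following an overnight hold at 37 °C. MetaXpress counted Hoechst-stained nuclei from 4× images taken after 5 days without medium change. Viability is the median ratio of treated-well to vehicle-well nuclei across plates. Plates required control CV below 25% and at least one doubling.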

[2] = compound: CC1=C(C(=O)N2C=CSC2=N1)CCN3CCC(=C(C4=CC=CC=C4)C5=CC=C(C=C5)F)CC3 + CCNC(=O)c1noc(-c2cc(C(C)C)c(O)cc2O)c1-c1ccc(CN2CCOCC2)cc1 [Luminespib] (partner 0.01 µM)
In short: (§1)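 One day after seeding in 1536-well plates, lung cancer cell lines were dosed by pin tool. Dosing was either single-drug or a fixed anchor-drug dose plus five library-drug doses (not always all listed) in √10 steps. After 5 days, nuclei were stained in one fix-and-stain step and counted on 4× images, and relative viability is the nuclei count of treated wells over that of vehicle wells, given as the median of duplicate plates.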

[3] = compound: CC1=C(C(=O)N2C=CSC2=N1)CCN3CCC(=C(C4=CC=CC=C4)C5=CC=C(C=C5)F)CC3 + COc1cc2c(Oc3ccc(NC(=O)C4(C(=O)Nc5ccc(F)cc5)CC4)cc3F)ccnc2cc1OCCCN1CCOCC1 [Foretinib] (partner 0.25 µM)
In short: as §1

[4] = compound: CC1=C(C(=O)N2C=CSC2=N1)CCN3CCC(=C(C4=CC=CC=C4)C5=CC=C(C=C5)F)CC3 + COc1cccc2cc(-c3nc([C@H]4CC[C@H](C(=O)O)CC4)n4ncnc(N)c34)[nH]c12 [OSI-027] (partner 0.5 µM)
In short: as §1

[5] = compound: CC1=C(C(=O)N2C=CSC2=N1)CCN3CCC(=C(C4=CC=CC=C4)C5=CC=C(C=C5)F)CC3 + Cc1cc(Nc2cc(N3CCN(C)CC3)nc(Sc3ccc(NC(=O)C4CC4)cc3)n2)n[nH]1 [Tozasertib] (partner 0.1 µM)
In short: as §1

[6] = compound: CC1=C(C(=O)N2C=CSC2=N1)CCN3CCC(=C(C4=CC=CC=C4)C5=CC=C(C=C5)F)CC3 + Cc1nc(Nc2ncc(C(=O)Nc3c(C)cccc3Cl)s2)cc(N2CCN(CCO)CC2)n1 [Dasatinib] (partner 0.075 µM)
In short: as §1

[7] = compound: CC1=C(C(=O)N2C=CSC2=N1)CCN3CCC(=C(C4=CC=CC=C4)C5=CC=C(C=C5)F)CC3 + N=C(N)NC(=N)NCCc1ccccc1 [Phenformin] (partner 250 µM)
In short: as §1

[8] = compound: CC1=C(C(=O)N2C=CSC2=N1)CCN3CCC(=C(C4=CC=CC=C4)C5=CC=C(C=C5)F)CC3 + CC(=O)Nc1cccc(-n2c(=O)n(C3CC3)c(=O)c3c(Nc4ccc(I)cc4F)n(C)c(=O)c(C)c32)c1 [Trametinib] (partner 0.02 µM)
In short: as §1

[9] = compound: CC1=C(C(=O)N2C=CSC2=N1)CCN3CCC(=C(C4=CC=CC=C4)C5=CC=C(C=C5)F)CC3 + CC(=O)c1c(C)c2cnc(Nc3ccc(N4CCNCC4)cn3)nc2n(C2CCCC2)c1=O [Palbociclib] (partner 0.5 µM)
In short: as §1

[10] = compound: CC1=C(C(=O)N2C=CSC2=N1)CCN3CCC(=C(C4=CC=CC=C4)C5=CC=C(C=C5)F)CC3 + NC(=O)Nc1cc(-c2cccc(F)c2)sc1C(=O)N[C@H]1CCCNC1 [AZD7762] (partner 0.2 µM)
In short: as §1

[11] = compound: CC1=C(C(=O)N2C=CSC2=N1)CCN3CCC(=C(C4=CC=CC=C4)C5=CC=C(C=C5)F)CC3 + Nc1nc2[nH]cc(CCc3ccc(C(=O)N[C@@H](CCC(=O)O)C(=O)O)cc3)c2c(=O)[nH]1 [Pemetrexed] (partner 0.2 µM)
In short: as §1

[12] = compound: CC1=C(C(=O)N2C=CSC2=N1)CCN3CCC(=C(C4=CC=CC=C4)C5=CC=C(C=C5)F)CC3 + Nc1ncn([C@H]2C[C@H](O)[C@@H](CO)O2)c(=O)n1 [Decitabine] (partner 2 µM)
In short: as §1

[13] = compound: CC1=C(C(=O)N2C=CSC2=N1)CCN3CCC(=C(C4=CC=CC=C4)C5=CC=C(C=C5)F)CC3 + O=C(CCCCCCC(=O)Nc1ccccc1)NO [Vorinostat] (partner 1 µM)
In short: as §1

[14] = compound: CC1=C(C(=O)N2C=CSC2=N1)CCN3CCC(=C(C4=CC=CC=C4)C5=CC=C(C=C5)F)CC3 + O=C(c1cc(Cc2n[nH]c(=O)c3ccccc23)ccc1F)N1CCN(C(=O)C2CC2)CC1 [Olaparib] (partner 8 µM)
In short: as §1

Cell Line: NCI-H1623
- relative viability ([1]; 0.08 µM): 0.887
- relative viability ([1]; 0.253 µM): 1.03
- relative viability ([1]; 0.8 µM): 1.02
- relative viability ([1]; 2.53 µM): 0.96
- relative viability ([1]; 8 µM): 0.87
- relative viability ([2]; first compound 0.08 µM): 0.563
- relative viability ([2]; first compound 0.253 µM): 0.631
- relative viability ([2]; first compound 0.8 µM): 0.521
- relative viability ([2]; first compound 2.53 µM): 0.472
- relative viability ([2]; first compound 8 µM): 0.35
- relative viability ([3]; first compound 0.08 µM): 0.632
- relative viability ([3]; first compound 0.253 µM): 0.968
- relative viability ([3]; first compound 0.8 µM): 0.886
- relative viability ([3]; first compound 2.53 µM): 0.819
- relative viability ([3]; first compound 8 µM): 0.826
- relative viability ([4]; first compound 0.08 µM): 0.416
- relative viability ([4]; first compound 0.253 µM): 0.411
- relative viability ([4]; first compound 0.8 µM): 0.431
- relative viability ([4]; first compound 2.53 µM): 0.436
- relative viability ([4]; first compound 8 µM): 0.433
- relative viability ([5]; first compound 0.08 µM): 0.466
- relative viability ([5]; first compound 0.253 µM): 0.434
- relative viability ([5]; first compound 0.8 µM): 0.446
- relative viability ([5]; first compound 2.53 µM): 0.475
- relative viability ([5]; first compound 8 µM): 0.419
- relative viability ([6]; first compound 0.08 µM): 0.473
- relative viability ([6]; first compound 0.253 µM): 0.57
- relative viability ([6]; first compound 0.8 µM): 0.5
- relative viability ([6]; first compound 2.53 µM): 0.536
- relative viability ([6]; first compound 8 µM): 0.549
- relative viability ([7]; first compound 0.08 µM): 0.706
- relative viability ([7]; first compound 0.253 µM): 0.618
- relative viability ([7]; first compound 0.8 µM): 0.607
- relative viability ([7]; first compound 2.53 µM): 0.564
- relative viability ([7]; first compound 8 µM): 0.594

Cell Line: SW 900
- relative viability ([1]; 0.08 µM): 0.89
- relative viability ([1]; 0.253 µM): 1.02
- relative viability ([1]; 0.8 µM): 0.883
- relative viability ([1]; 2.53 µM): 1.04
- relative viability ([1]; 8 µM): 0.595
- relative viability ([8]; first compound 0.08 µM): 0.821
- relative viability ([8]; first compound 0.253 µM): 1.18
- relative viability ([8]; first compound 0.8 µM): 0.855
- relative viability ([8]; first compound 2.53 µM): 0.614
- relative viability ([8]; first compound 8 µM): 0.497
- relative viability ([9]; first compound 0.08 µM): 0.524
- relative viability ([9]; first compound 0.253 µM): 0.514
- relative viability ([9]; first compound 0.8 µM): 0.543
- relative viability ([9]; first compound 2.53 µM): 0.58
- relative viability ([9]; first compound 8 µM): 0.526
- relative viability ([2]; first compound 0.08 µM): 0.181
- relative viability ([2]; first compound 0.253 µM): 0.182
- relative viability ([2]; first compound 0.8 µM): 0.188
- relative viability ([2]; first compound 2.53 µM): 0.188
- relative viability ([2]; first compound 8 µM): 0.174
- relative viability ([3]; first compound 0.08 µM): 0.833
- relative viability ([3]; first compound 0.253 µM): 0.935
- relative viability ([3]; first compound 0.8 µM): 0.951
- relative viability ([3]; first compound 2.53 µM): 0.988
- relative viability ([3]; first compound 8 µM): 0.566
- relative viability ([4]; first compound 0.08 µM): 0.452
- relative viability ([4]; first compound 0.253 µM): 0.543
- relative viability ([4]; first compound 0.8 µM): 0.582
- relative viability ([4]; first compound 2.53 µM): 0.719
- relative viability ([4]; first compound 8 µM): 0.276
- relative viability ([5]; first compound 0.08 µM): 0.539
- relative viability ([5]; first compound 0.253 µM): 0.636
- relative viability ([5]; first compound 0.8 µM): 0.606
- relative viability ([5]; first compound 2.53 µM): 0.602
- relative viability ([5]; first compound 8 µM): 0.351
- relative viability ([6]; first compound 0.08 µM): 0.399
- relative viability ([6]; first compound 0.253 µM): 0.634
- relative viability ([6]; first compound 0.8 µM): 0.634
- relative viability ([6]; first compound 2.53 µM): 0.584
- relative viability ([6]; first compound 8 µM): 0.41
- relative viability ([7]; first compound 0.08 µM): 0.474
- relative viability ([7]; first compound 0.253 µM): 0.68
- relative viability ([7]; first compound 0.8 µM): 0.521
- relative viability ([7]; first compound 2.53 µM): 0.568
- relative viability ([7]; first compound 8 µM): 0.516
- relative viability ([10]; first compound 0.08 µM): 0.517
- relative viability ([10]; first compound 0.253 µM): 0.666
- relative viability ([10]; first compound 0.8 µM): 0.656
- relative viability ([10]; first compound 2.53 µM): 0.737
- relative viability ([10]; first compound 8 µM): 0.367
- relative viability ([11]; first compound 0.08 µM): 0.436
- relative viability ([11]; first compound 0.253 µM): 0.532
- relative viability ([11]; first compound 0.8 µM): 0.484
- relative viability ([11]; first compound 2.53 µM): 0.5
- relative viability ([11]; first compound 8 µM): 0.281
- relative viability ([12]; first compound 0.08 µM): 0.477
- relative viability ([12]; first compound 0.253 µM): 0.437
- relative viability ([12]; first compound 0.8 µM): 0.407
- relative viability ([12]; first compound 2.53 µM): 0.45
- relative viability ([12]; first compound 8 µM): 0.496
- relative viability ([13]; first compound 0.08 µM): 0.438
- relative viability ([13]; first compound 0.253 µM): 0.751
- relative viability ([13]; first compound 0.8 µM): 0.478
- relative viability ([13]; first compound 2.53 µM): 0.603
- relative viability ([13]; first compound 8 µM): 0.241
- relative viability ([14]; first compound 0.08 µM): 0.896
- relative viability ([14]; first compound 0.253 µM): 0.878
- relative viability ([14]; first compound 0.8 µM): 0.841
- relative viability ([14]; first compound 2.53 µM): 0.848
- relative viability ([14]; first compound 8 µM): 0.706
